Reference: patent US7148352B2, “Method of inhibiting neurotrophin-receptor binding” (Queen's University at Kingston, priority 1999, dated 2006)
“And” between values parts separate entries of the source, which are not always exact repeats. Equal entries are not always repeated. Each block holds one compound with its values, some of them ahead of it.

Assays:
Parameters in all cases: species or system rat
[1] = molecular target: T1, TrkA and p75^NTR (PC12 cells) (Mus musculus, UniProt P01139); test: 125I-NGF receptor binding to PC12 cells in the presence of competitor; details: compound 50 μM; 125I-NGF 1 nM; 2 h at 4° C.; average of three values
T1 construct: PC12 cells (rat pheochromocytoma cells expressing TrkA and p75^NTR; obtained from ATCC); host or cells: PC12 rat pheochromocytoma cells (intact, in suspension)
T1 sequence (P01139 122-241): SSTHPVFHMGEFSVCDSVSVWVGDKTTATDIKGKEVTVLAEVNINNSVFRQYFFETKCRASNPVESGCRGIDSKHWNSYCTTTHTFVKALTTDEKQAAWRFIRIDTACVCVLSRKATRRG
Protocol: (§1) The radio-iodination and receptor binding of NGF (Sutter et al., 1979) was performed with modifications (Ross et al., 1997) as follows: Evaluation of the ability of NCP compounds to inhibit TrkA and p75^NTR binding was determined by the binding of ^125I-NGF to PC12 cells (rat pheochromocytoma cells expressing TrkA and p75^NTR; obtained from ATCC) and PC12^nnr5 (rat pheochromocytoma cells expressing p75^NTR only; obtained from Dr. L. Greene, Columbia University, NY). The p75^NTR is in a low affinity state and a high affinity state, respectively, in these cell types (Ross et al., 1998). PC12 and PC12^nnr5 cells were grown in RPMI (Sigma) with 10% heat inactivated donor horse serum and 5% fetal calf serum. Cells were harvested by replacing the medium with calcium, magnesium-free balanced salt solution (Gey's solution) and incubating at 37° C. for 15 minutes. Cells were pelleted by centrifugation and suspended in HKR buffer (10 mM Hepes [pH 7.35] containing 125 mM NaCl, 4.8 mM KCl, 1.3 mM CaCl2, 1.2 mM MgSO4, 1.2 mM KH2PO4, 1 g/L glucose and 1 g/L BSA) at a cell concentration of 2×10^6/mL and kept at 4° C. Triplicate tubes were set up for total binding, non-specific binding and binding in the presence of candidate competitor molecule (i.e., a tube for each data point). Each tube contained ^125I-NGF (at 1 nM), 400,000 cells (for a final cell concentration of 10^6/mL) and NGF (50 nM, to define non-specific binding), as required. The tubes were incubated for 2 h at 4° C. and specific binding evaluated by measuring specifically bound DPM (Ross et al., 1997). Data were analysed and the results expressed as receptor binding observed in the presence of competitor (e.g. NCP compounds) as a percentage of receptor binding in the absence of a competitor.

[2] = tested on: T2, TrkA and p75^NTR (PC12 cells); test: as above; details: compound 50 μM; 125I-NGF 1 nM; 2 h at 4° C.; receptor binding as percentage of binding in absence of competitor
T2 construct: PC12 cells (rat pheochromocytoma cells expressing TrkA and p75^NTR; obtained from ATCC); host or cells: PC12 rat pheochromocytoma cells (intact, in suspension)
T2 sequence (P01139 122-241): as above
Protocol: as §1

[3] = tested on: p75^NTR (PC12^nnr5 cells, expressing p75^NTR only); test: 125I-NGF receptor binding to PC12^nnr5 cells in the presence of competitor; details: compound 50 μM, 125I-NGF 1 nM, 2 h at 4° C.; for nnr5 % of Max, Avg: average of three values; for nnr5 % of Max (individual determinations): receptor binding as percentage of binding in absence of competitor
Protocol: as §1

Structure (SMILES): O=C(O)CN1C(=O)c2ccc(C(=O)O)cc2C1=O [Compound 100, 4-carboxy-N-(1-carboxymethyl)phthalimide]
- PC12 % of Max, Avg [1]: = 116 % of Max
- PC12 % of Max (individual determinations) [2]: 102 % of Max and 108 % of Max and 137 % of Max
- nnr5 % of Max, Avg [3]: = 100 % of Max
- nnr5 % of Max (individual determinations) [3]: 108 % of Max and 111 % of Max and 80 % of Max

Structure (SMILES): O=C(O)CCN1C(=O)c2ccc(C(=O)O)cc2C1=O [Compound 101, 4-carboxy-N-(2-carboxyethyl)phthalimide]
- PC12 % of Max, Avg [1]: = 107 % of Max
- PC12 % of Max (individual determinations) [2]: 89 % of Max and 94 % of Max and 139 % of Max
- nnr5 % of Max, Avg [3]: = 81 % of Max
- nnr5 % of Max (individual determinations) [3]: 89 % of Max and 91 % of Max and 64 % of Max

Structure (SMILES): O=C(O)CCCN1C(=O)c2ccc(C(=O)O)cc2C1=O [Compound 102, 4-carboxy-N-(3-carboxypropyl)phthalimide]
- PC12 % of Max, Avg [1]: = 91 % of Max
- PC12 % of Max (individual determinations) [2]: 79 % of Max and 80 % of Max and 113 % of Max
- nnr5 % of Max, Avg [3]: = 55 % of Max
- nnr5 % of Max (individual determinations) [3]: 55 % of Max and 50 % of Max and 61 % of Max

Structure (SMILES): O=C(O)CCCCN1C(=O)c2ccc(C(=O)O)cc2C1=O [Compound 103, 4-carboxy-N-(4-carboxybutyl)phthalimide]
- PC12 % of Max, Avg [1]: = 78 % of Max
- PC12 % of Max (individual determinations) [2]: 69 % of Max and 65 % of Max and 100 % of Max
- nnr5 % of Max, Avg [3]: = 47 % of Max
- nnr5 % of Max (individual determinations) [3]: 32 % of Max and 69 % of Max and 41 % of Max

Structure (SMILES): O=C(O)CCCCCN1C(=O)c2ccc(C(=O)O)cc2C1=O [Compound 104, 4-carboxy-N-(5-carboxypentyl)phthalimide]
- PC12 % of Max, Avg [1]: = 56 % of Max
- PC12 % of Max (individual determinations) [2]: 51 % of Max and 50 % of Max and 66 % of Max
- nnr5 % of Max, Avg [3]: = 37 % of Max
- nnr5 % of Max (individual determinations) [3]: 30 % of Max and 65 % of Max and 17 % of Max

Structure (SMILES): O=C(O)c1ccc(N2C(=O)c3ccc(C(=O)O)cc3C2=O)cc1 [Compound 105, 4-carboxy-N-(p-carboxyphenyl)phthalimide]
- PC12 % of Max, Avg [1]: = 36 % of Max
- PC12 % of Max (individual determinations) [2]: 29 % of Max and 38 % of Max and 40 % of Max
- nnr5 % of Max, Avg [3]: = 34 % of Max
- nnr5 % of Max (individual determinations) [3]: 31 % of Max and 17 % of Max and 55 % of Max

Structure (SMILES): O=C(O)c1cccc(N2C(=O)c3ccc(C(=O)O)cc3C2=O)c1 [Compound 106, 4-carboxy-N-(m-carboxyphenyl)phthalimide]
- PC12 % of Max, Avg [1]: = 44 % of Max
- PC12 % of Max (individual determinations) [2]: 40 % of Max (2×) and 52 % of Max
- nnr5 % of Max, Avg [3]: = 26 % of Max
- nnr5 % of Max (individual determinations) [3]: 37 % of Max and 16 % of Max and 24 % of Max

Structure (SMILES): O=C(O)c1ccc2c(c1)C(=O)N(c1ccccc1C(=O)O)C2=O [Compound 107, 4-carboxy-N-(o-carboxyphenyl)phthalimide]
- PC12 % of Max, Avg [1]: = 100 % of Max
- PC12 % of Max (individual determinations) [2]: 111 % of Max and 86 % of Max and 103 % of Max
- nnr5 % of Max, Avg [3]: = 85 % of Max
- nnr5 % of Max (individual determinations) [3]: 58 % of Max and 113 % of Max and 83 % of Max

Structure (SMILES): O=C(O)c1ccc(CN2C(=O)c3ccc(C(=O)O)cc3C2=O)cc1 [Compound 108, 4-carboxy-N-(p-carboxyphenylmethyl)phthalimide]
- PC12 % of Max, Avg [1]: = 73 % of Max
- PC12 % of Max (individual determinations) [2]: 90 % of Max and 55 % of Max and 75 % of Max
- nnr5 % of Max, Avg [3]: = 93 % of Max
- nnr5 % of Max (individual determinations) [3]: 135 % of Max and 77 % of Max and 66 % of Max

Structure (SMILES): O=C(O)c1ccc2c(c1)C(=O)N(c1ccccc1)C2=O [Compound 109, 4-carboxy-N-phenylphthalimide]
- PC12 % of Max, Avg [1]: = 56 % of Max
- PC12 % of Max (individual determinations) [2]: 50 % of Max and 60 % of Max and 57 % of Max
- nnr5 % of Max, Avg [3]: = 73 % of Max
- nnr5 % of Max (individual determinations) [3]: 70 % of Max and 74 % of Max and 75 % of Max

Structure (SMILES): O=C(O)c1ccc(N2C(=O)c3cccc([N+](=O)[O-])c3C2=O)cc1 [Compound 125, 3-nitro-N-(p-carboxyphenyl)phthalimide]
- PC12 % of Max, Avg [1]: = 90 % of Max
- PC12 % of Max (individual determinations) [2]: 83 % of Max and 87 % of Max and 99 % of Max
- nnr5 % of Max, Avg [3]: = 49 % of Max
- nnr5 % of Max (individual determinations) [3]: 47 % of Max (2×) and 54 % of Max

Structure (SMILES): O=C(O)c1cccc(N2C(=O)c3cccc([N+](=O)[O-])c3C2=O)c1 [Compound 126, 3-nitro-N-(m-carboxyphenyl)phthalimide]
- PC12 % of Max, Avg [1]: = 77 % of Max
- PC12 % of Max (individual determinations) [2]: 90 % of Max and 69 % of Max and 72 % of Max
- nnr5 % of Max, Avg [3]: = 52 % of Max
- nnr5 % of Max (individual determinations) [3]: 34 % of Max and 54 % of Max and 69 % of Max

Structure (SMILES): O=C(O)c1ccccc1N1C(=O)c2cccc([N+](=O)[O-])c2C1=O [Compound 127, 3-nitro-N-(o-carboxyphenyl)phthalimide]
- PC12 % of Max, Avg [1]: = 118 % of Max
- PC12 % of Max (individual determinations) [2]: 140 % of Max and 101 % of Max and 114 % of Max
- nnr5 % of Max, Avg [3]: = 112 % of Max
- nnr5 % of Max (individual determinations) [3]: 136 % of Max and 129 % of Max and 71 % of Max

Second part, led by results:

- PC12 % of Max, Avg [1]: = 109 % of Max
Structure (SMILES): O=C(O)CN1C(=O)c2cccc([N+](=O)[O-])c2C1=O [Compound 120, 3-nitro-N-(1-carboxymethyl)phthalimide]
- PC12 % of Max (individual determinations) [2]: 133 % of Max and 92 % of Max and 103 % of Max
- nnr5 % of Max, Avg [3]: = 183 % of Max
- nnr5 % of Max (individual determinations) [3]: 218 % of Max and 200 % of Max and 130 % of Max

- PC12 % of Max, Avg [1]: = 103 % of Max
Structure (SMILES): O=C(O)CCN1C(=O)c2cccc([N+](=O)[O-])c2C1=O [Compound 121, 3-nitro-N-(2-carboxyethyl)phthalimide]
- PC12 % of Max (individual determinations) [2]: 121 % of Max and 92 % of Max and 103 % of Max
- nnr5 % of Max, Avg [3]: = 165 % of Max
- nnr5 % of Max (individual determinations) [3]: 204 % of Max and 188 % of Max and 103 % of Max

- PC12 % of Max, Avg [1]: = 97 % of Max
Structure (SMILES): O=C(O)CCCN1C(=O)c2cccc([N+](=O)[O-])c2C1=O [Compound 122, 3-nitro-N-(3-carboxypropyl)phthalimide]
- PC12 % of Max (individual determinations) [2]: 106 % of Max and 88 % of Max and 98 % of Max
- nnr5 % of Max, Avg [3]: = 163 % of Max
- nnr5 % of Max (individual determinations) [3]: 232 % of Max and 152 % of Max and 104 % of Max

- PC12 % of Max, Avg [1]: = 97 % of Max
Structure (SMILES): O=C(O)CCCCN1C(=O)c2cccc([N+](=O)[O-])c2C1=O [Compound 123, 3-nitro-N-(4-carboxybutyl)phthalimide]
- PC12 % of Max (individual determinations) [2]: 118 % of Max and 75 % of Max and 98 % of Max
- nnr5 % of Max, Avg [3]: = 150 % of Max
- nnr5 % of Max (individual determinations) [3]: 172 % of Max and 161 % of Max and 117 % of Max

- PC12 % of Max, Avg [1]: = 92 % of Max
Structure (SMILES): O=C(O)CCCCCN1C(=O)c2cccc([N+](=O)[O-])c2C1=O [Compound 124, 3-nitro-N-(5-carboxypentyl)phthalimide]
- PC12 % of Max (individual determinations) [2]: 117 % of Max and 71 % of Max and 89 % of Max
- nnr5 % of Max, Avg [3]: = 153 % of Max
- nnr5 % of Max (individual determinations) [3]: 166 % of Max and 182 % of Max and 110 % of Max

- PC12 % of Max, Avg [1]: = 111 % of Max
Structure (SMILES): O=C(O)CN1C(=O)c2ccc([N+](=O)[O-])cc2C1=O [Compound 140, 4-nitro-N-(1-carboxymethyl)phthalimide]
- PC12 % of Max (individual determinations) [2]: 100 % of Max and 126 % of Max and 108 % of Max
- nnr5 % of Max, Avg [3]: = 99 % of Max
- nnr5 % of Max (individual determinations) [3]: 89 % of Max and 108 % of Max and 100 % of Max
